Results published in patent US11596598B2, “Chlorogenic acid-containing composition for nasal administration” (SICHUAN JIUZHANG BIOLOGICAL SCIENCE AND TECHNOLOGY CO., LTD, priority 2019, dated 2023).

Tests used:
[1] = Bioavailability of nasal administration in beagle dogs (chlorogenic acid content in blood); format: in vivo; details: male, dog, serum, other: nasal administration, 4 mg/kg chlorogenic acid
Method: • Six male beagle dogs, weighing 10-13 kg.
Six beagle dogs were randomly divided into groups and cross-administered with one week interval.
After fasting for 12 h, test animals were given chlorogenic acid, nasal powder, and aerosol at a dose of 4 mg/kg chlorogenic acid by nasal administration, and one additional dog was injected intravenously with chlorogenic acid at 4 mg/kg. 3 h after administration, dogs were allowed to feed;
10 min, 30 min, 60 min, 90 min, 120 min, 150 min after administration of beagle dogs, 3 mL intravenous blood was collected, heparin was used to anticoagulate, and then 1 mL serum was separated by centrifugation, and stored in a refrigerator at −20° C.
To 100 μL serum, were added methanol-0.2% phosphoric acid (80:20) solution (100 μL), the solution of puerarin in methanol as internal standard (50 mg/mL, 100 μL), and 100 μL methanol. The resultant solution was vortexed for 3 min, allowed to stand, and centrifuged (12000 rpm) for 10 min. The supernatant was collected as the serum test solution.
(§1) Octadecylsilane-bonded silica gel column (150 mm×4.6 mm, 5 μm) and guard column were used; mobile phase A (methanol) and mobile phase B (0.2% phosphoric acid) were used to perform desorption according to a gradient elution procedure; the detection wavelength was 325 nm; the flow rate was 1 mL/min; the column temperature was 40° C.
20 μL of the serum test solution was accurately measured, and injected into the liquid chromatograph, to record the chromatogram. The internal standard method was used to calculate the content of chlorogenic acid in serum with accompanying standard curve.

[2] = Blood-brain barrier permeability in rats after nasal administration (chlorogenic acid content in brain tissue); format: in vivo; details: SD, rat, other: nasal administration, 20 mg/kg chlorogenic acid
Method: 150 SD rats, half male and half […], weighing 180-220 g.
SD rats were randomly divided into 5 groups, 30 rats for each group, and each test drug was administrated nasally at a dose of 20 mg/kg chlorogenic acid. The tissue samples were collected at 10 min, 30 min, 60 min, 90 min, 120 min, and 150 min after administration.
After administration, each experimental group was intraperitoneally injected with 1% pentobarbital sodium (0.2 mL) for deep anesthesia according to the time point, and then a needle was inserted from the left ventricle. The right ventricle was cut, and physiological saline was injected with a syringe for cardiac perfusion until the liver and spleen turned gray, and the brain tissue was taken out.
The brain tissue was placed in a homogenizer, to which was added 0.9% sodium chloride injection according to brain tissue: normal saline=1:1 (w/v) and then homogenized. To 200 μL homogenate, were added 50 mg/mL puerarin internal standard solution (200 μL) and methanol (200 μL), and then the mixture was vortexed and centrifuged. The supernatant was collected as the brain tissue test solution.
as §1
20 μL of the brain tissue test solution was accurately measured, and injected into the liquid chromatograph, to record the chromatogram. The internal standard method was used to calculate the content of chlorogenic acid in […] with accompanying standard curve.

Rat C6 glioma cells = assay: Inhibitory effect of nasal administration and intraperitoneal injection on glioma in rats; format: in vivo, SD rats; details: rat C6 brain glioma; for Tumor size: imaging on 21st day
Method: 1.1.3 Positive Control Drug: Temozolomide
40 SD rats, half male and half […], weighing 180-220 g.
Rat C6 glioma cells were incubated in 10% calf serum DMEM complete culture medium, subcultured in a monolayer culture method and allowed to grow to the required number of cells, and then subcultured once before inoculation. Cells in logarithmic growth phase are collected, digested with trypsin, centrifuged, and made to 1×10^4/10 μL cell suspension with Hanks solution, then stored in a refrigerator at 4° C. for inoculation.
Rats were anesthetized by intraperitoneal injection of 10% chloral hydrate, and the hair on the top of the rat's head was cut off and disinfected with iodine. The scalp was cut to expose the skull, and an electronic dental drill was used to open the cranium 1 mm behind the coronal suture and 3 mm to the right of the sagittal suture. 10 μL C6 cell suspension was injected, the bone hole was sealed with bone wax, and the incision was sutured. 5 days after tumor inoculation, the rats were examined by imaging, and tumorigenic rats were selected.
The tumorigenic rats were randomly divided into 8 groups, 5 rats for each group, and the groups included nasal administration groups: chlorogenic acid bulk drug group, the nasal powder group of example 1, the nasal powder group of example 5, the aerosol group of example 6, and the aerosol group of example 7; intraperitoneal injection group of chlorogenic acid, temozolomide positive control drug group, and blank group. For nasal administration, each test drug group received corresponding drugs at a dose of 20 mg/kg chlorogenic acid daily; intraperitoneal injection group of chlorogenic acid was administrated at a dose of 20 mg/kg chlorogenic acid daily; temozolomide positive control group was administered intragastrically at a dose of 25 mg/kg daily. Each test group started to be given the drug on the 6th day after tumor inoculation for 20 consecutive days, and on the 21st day each drug group and the blank group were imaged to check the tumor size.
SPSS software was used to perform t test, analysis of variance and multiple comparisons test.
The post-processing platform was used to measure the tumor volume on the 3DFSPGR sequence, and the tumor inhibition rate was calculated.

nasopharyngeal carcinoma = assay: Inhibitory effect on nasopharyngeal carcinoma in rats: nasopharyngeal tissue paraffin microscopy; format: in vivo, SD rats; details: nasal administration, 20 mg/kg chlorogenic acid once a day, 5 rats per group, dinitrosopiperazine/phorbol ester induced, 20th week
Excerpt: 1.1.3 Positive Control Drug: Retinoic Acid
SD rats, half male and half […], weighing 180-220 g.
(§2) SD rats were randomly divided into 8 groups, 5 rats for each group, and the groups included nasal administration groups: chlorogenic acid bulk drug group, the nasal powder group of example 1, the nasal powder group of example 5, the aerosol group of example 6, and the aerosol group of example 7; intraperitoneal injection group of chlorogenic acid, positive control drug group, and blank group. Amongst, for nasal administration, each test drug group received corresponding drugs at a dose of 20 mg/kg chlorogenic acid daily, once a day; intraperitoneal injection group of chlorogenic acid was administrated at a dose of 20 mg/kg chlorogenic acid daily, once a day; retinoic acid positive drug group was administered intragastrically at a dose of 90 mg/kg daily, once a day. Rats in each experimental group were given dinitrosopiperazine and phorbol ester to promote cancer. Dinitrosopiperazine was injected into the armpit at a dose of 40 mg/kg to induce carcinogenesis, twice a week, for a total of 15 weeks. After dinitrosopiperazine was injected for two weeks, phorbol diester was injected at a dose of 50 ng/rat, twice a week, for a total of 15 weeks. The rats were sacrificed at the 20th week, rhinitis tissues were dissected, histopathology was observed, and telomerase was detected.
Rat nasopharyngeal tissues were fixed with 10% formaldehyde, decalcified in Jenkin's solution, further fixed in neutral formalin, and embedded in paraffin to make serial sections, then stained with hematoxylin and eosin and observed under a microscope.

telomerase = assay: Telomerase detection in nasopharyngeal tissue of rats; format: in vivo, SD rats; details: rat nasopharyngeal tissue homogenate, Telomerase ELISA-PCR kit, 20th week
Method: as §2, with “Dinitrosopiperazine was injected into the armpit at a dose of 40 mg/kg to induce carcinogenesis, twice a week, for a total of 15 weeks. After dinitrosopiperazine was injected for two weeks, phorbol diester was injected at a dose of 50 ng/rat, twice a week, for a total of 15 weeks.” left out
Nasopharyngeal tissue homogenate was weighed and centrifuged, and then the supernatant was collected and processed according to Telomerase ELISA-PCR kit instruction (Shanghai Boehringer Mannheim Co.). After obtaining PCR reaction product, the telomerase activity was quantitatively detected, followed by concentration and electrophoresis on polyacrylamide gel, then staining with silver nitrate.

[3] = 10 min after nasal administration
[4] = 30 min after nasal administration
[5] = 60 min after nasal administration
[6] = 90 min after nasal administration
[7] = 120 min after nasal administration
[8] = 150 min after nasal administration
[9] = nasal administration, 20 mg/kg chlorogenic acid daily for 20 days
[10] = listed as chlorogenic acid raw material
[11] = intraperitoneal injection, 25 mg/kg daily for 20 days

O=C(/C=C/c1ccc(O)c(O)c1)O[C@@H]1C[C@](O)(C(=O)O)C[C@@H](O)[C@H]1O [Chlorogenic acid bulk drug, Chlorogenic acid]
concentration at 10 min [1, 3]: 1020 ng/mL | concentration at 30 min [1, 4]: 5740 ng/mL | concentration at 60 min [1, 5]: 2200 ng/mL | concentration at 90 min [1, 6]: 980 ng/mL | concentration at 120 min [1, 7]: 520 ng/mL | concentration at 150 min [1, 8]: 220 ng/mL | concentration at 10 min [2, 3]: 0 ng/g | concentration at 30 min [2, 4]: 320 ng/g | concentration at 60 min [2, 5]: 860 ng/g | concentration at 90 min [2, 6]: 650 ng/g | concentration at 120 min [2, 7]: 320 ng/g | concentration at 150 min [2, 8]: 130 ng/g | Tumor inhibition rate (Rat C6 glioma cells; [9]): 22.35% | Tumor size (Rat C6 glioma cells; [9]): 48.35 ± 4.83 mm3 | Dysplastic tissue (number of rats, nasopharyngeal tissue paraffin microscopy) (nasopharyngeal carcinoma): 3 | Normal tissue (number of rats, nasopharyngeal tissue paraffin microscopy) (nasopharyngeal carcinoma): 1 | Simple hyperplasia (number of rats, nasopharyngeal tissue paraffin microscopy) (nasopharyngeal carcinoma): 1 | Dysplastic tissue (number of rats, nasopharyngeal tissue paraffin microscopy) (nasopharyngeal carcinoma; [10]): three | Simple hyperplasia (number of rats, nasopharyngeal tissue paraffin microscopy) (nasopharyngeal carcinoma; [10]): one | telomerase activity (telomerase; nasal administration, 20 mg/kg chlorogenic acid once a day): 0.56±0.17

CC1=C(/C=C/C(C)=C/C=C/C(C)=C/C(=O)O)C(C)(C)CCC1 [Retinoic acid]
telomerase activity (telomerase; intragastric administration, 90 mg/kg once a day): 0.22±0.12

Cn1nnc2c(C(N)=O)ncn2c1=O [Temozolomide]
Tumor inhibition rate (Rat C6 glioma cells; [11]): 39.57% | Tumor size (Rat C6 glioma cells; [11]): 37.63 ± 3.21 mm3
